{"source": "ChEMBL document CHEMBL4177750", "about": "“Imidazopyrazinones (IPYs): Non-Quinolone Bacterial Topoisomerase Inhibitors Showing Partial Cross-Resistance with Quinolones” (J Med Chem, 2018)", "key": {"[1]": {"tested_on": "Staphylococcus aureus", "assay": "Antibacterial activity against wild type Staphylococcus aureus RN4220 after 20 to 22 hrs", "type": "functional"}, "[2]": {"tested_on": "Klebsiella pneumoniae", "assay": "Antibacterial activity against Klebsiella pneumoniae 1161486 harboring GyrA S83I mutant after 20 to 22 hrs", "type": "functional"}, "[3]": {"tested_on": "Escherichia coli", "assay": "Antibacterial activity against tolC-deficient Escherichia coli K-12 MG1655 after 20 to 22 hrs", "type": "functional", "settings": "K-12 substr. MG1655"}, "[4]": {"tested_on": "Pseudomonas aeruginosa", "assay": "Antibacterial activity against Pseudomonas aeruginosa PAO750 harboring mexAB-oprM/mexCD-oprJ/mexEF-oprN/mexXY/opmH/mexJK/pscC deletion mutant after 20 to 22 hrs", "type": "functional"}, "[5]": {"tested_on": "Staphylococcus aureus", "assay": "Antibacterial activity against Staphylococcus aureus RN4220 harboring GyrB D437N mutant after 20 to 22 hrs", "type": "functional"}, "[6]": {"tested_on": "Klebsiella pneumoniae", "assay": "Antibacterial activity against wild type Klebsiella pneumoniae 1161486 after 20 to 22 hrs", "type": "functional"}, "[7]": {"tested_on": "Escherichia coli", "assay": "Antibacterial activity against hyperpermeable Escherichia coli D22 harboring LpxC mutant after 20 to 22 hrs"}, "[8]": {"tested_on": "Escherichia coli", "assay": "Antibacterial activity against ESBL producing Escherichia coli ATCC 35218 after 20 to 22 hrs", "type": "functional"}, "[9]": {"tested_on": "Klebsiella pneumoniae", "assay": "Antibacterial activity against Klebsiella pneumoniae 1161486 harboring GyrA S83I/ParC S80I double mutant after 20 to 22 hrs", "type": "functional"}, "[10]": {"tested_on": "Staphylococcus aureus", "assay": "Antibacterial activity against Staphylococcus aureus RN4220 harboring ParC S80F/GyrA S84L double mutant after 20 to 22 hrs", "type": "functional"}, "[11]": {"tested_on": "Klebsiella pneumoniae", "assay": "Antibacterial activity against Klebsiella pneumoniae 1161486 harboring GyrA S83F/D87V/ParC S80I triple mutant after 20 to 22 hrs", "type": "functional"}, "[12]": {"tested_on": "Staphylococcus aureus", "assay": "Antibacterial activity against Staphylococcus aureus RN4220 harboring GyrA D83N mutant after 20 to 22 hrs", "type": "functional"}, "[13]": {"tested_on": "Staphylococcus aureus", "assay": "Antibacterial activity against Staphylococcus aureus RN4220 harboring GyrA D83N/ParC D79N double mutant after 20 to 22 hrs", "type": "functional"}, "[14]": {"tested_on": "Staphylococcus aureus", "assay": "Antibacterial activity against Staphylococcus aureus RN4220 harboring ParC S80F mutant after 20 to 22 hrs", "type": "functional"}, "[15]": {"tested_on": "Staphylococcus aureus", "assay": "Ratio of MIC for methicillin-resistant Staphylococcus aureus ATCC 33592 in presence of 50% calf fetal serum to MIC for methicillin-resistant Staphylococcus aureus ATCC 33592 in absence of 50% calf fetal serum", "type": "functional"}, "[16]": {"assay": "Chemical stability in pH 7.4 buffer solution", "type": "physicochemical"}, "[17]": {"assay": "Permeability across human Caco2 cells", "type": "ADME, cell-based", "settings": "Caco-2"}, "[18]": {"tested_on": "Escherichia coli", "assay": "Antibacterial activity against tolC-deficient fluoroquinolones-sensitive Escherichia coli JC7623 clinical isolate harboring wild type DNA gyrase after 20 to 22 hrs"}, "[19]": {"tested_on": "Staphylococcus aureus", "assay": "Ratio of MIC for methicillin-resistant Staphylococcus aureus ATCC 33592 in presence of 50% mouse serum to MIC for methicillin-resistant Staphylococcus aureus ATCC 33592 in absence of 50% mouse serum", "type": "functional"}, "[20]": {"assay": "Metabolic stability in mouse liver microsomes", "type": "ADME, microsome"}, "[21]": {"tested_on": "Staphylococcus aureus", "assay": "Antibacterial activity against methicillin-resistant Staphylococcus aureus ATCC 33592 after 20 to 22 hrs", "type": "functional"}, "[22]": {"tested_on": "Pseudomonas aeruginosa", "assay": "Antibacterial activity against Pseudomonas aeruginosa PAO1 after 20 to 22 hrs", "type": "functional"}, "[23]": {"tested_on": "Escherichia coli", "assay": "Antibacterial activity against tolC-deficient fluoroquinolones-resistant Escherichia coli W4753 clinical isolate harboring DNA gyrase S83L/D87N/ParC S80I/ParE S458A mutant after 20 to 22 hrs"}, "[24]": {"tested_on": "Escherichia coli", "assay": "Antibacterial activity against Escherichia coli K-12 MG1655 after 20 to 22 hrs", "settings": "K-12 substr. MG1655"}, "[25]": {"biological_target": "hERG (KCNH2) (Homo sapiens, UniProt Q12809)", "sequence (Q12809 whole entry)": "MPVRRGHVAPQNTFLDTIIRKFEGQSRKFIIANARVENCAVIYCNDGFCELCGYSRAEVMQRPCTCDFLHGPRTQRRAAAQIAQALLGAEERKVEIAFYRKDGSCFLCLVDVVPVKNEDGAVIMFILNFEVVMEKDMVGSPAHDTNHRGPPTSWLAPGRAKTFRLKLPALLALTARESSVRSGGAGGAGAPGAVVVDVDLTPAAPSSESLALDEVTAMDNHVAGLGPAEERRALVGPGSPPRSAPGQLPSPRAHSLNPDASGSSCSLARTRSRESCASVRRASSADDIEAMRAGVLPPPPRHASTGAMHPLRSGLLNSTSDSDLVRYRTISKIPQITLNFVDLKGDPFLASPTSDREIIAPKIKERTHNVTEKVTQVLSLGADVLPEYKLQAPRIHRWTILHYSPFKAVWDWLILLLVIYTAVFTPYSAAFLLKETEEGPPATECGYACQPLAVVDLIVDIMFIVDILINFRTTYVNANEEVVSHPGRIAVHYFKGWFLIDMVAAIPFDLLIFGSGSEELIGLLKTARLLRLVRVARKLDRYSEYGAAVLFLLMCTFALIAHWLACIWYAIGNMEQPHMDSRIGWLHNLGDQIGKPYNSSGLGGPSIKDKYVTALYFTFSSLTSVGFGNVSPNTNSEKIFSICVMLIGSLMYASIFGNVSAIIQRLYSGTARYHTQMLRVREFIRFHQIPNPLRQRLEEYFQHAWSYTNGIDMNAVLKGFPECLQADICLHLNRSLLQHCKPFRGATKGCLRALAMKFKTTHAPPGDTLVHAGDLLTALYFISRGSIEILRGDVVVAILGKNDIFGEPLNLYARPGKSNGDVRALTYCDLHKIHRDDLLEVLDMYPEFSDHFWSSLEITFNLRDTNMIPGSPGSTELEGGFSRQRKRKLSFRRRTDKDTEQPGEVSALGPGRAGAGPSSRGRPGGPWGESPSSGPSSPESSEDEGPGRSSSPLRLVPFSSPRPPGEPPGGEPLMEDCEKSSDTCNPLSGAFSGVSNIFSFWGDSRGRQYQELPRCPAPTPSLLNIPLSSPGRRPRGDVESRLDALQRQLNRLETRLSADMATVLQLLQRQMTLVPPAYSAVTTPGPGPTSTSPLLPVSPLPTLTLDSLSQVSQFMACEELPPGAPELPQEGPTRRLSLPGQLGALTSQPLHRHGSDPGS", "assay": "Inhibition of human ERG transfected in CHO cells at 10 uM by patch clamp method relative to control", "type": "cell-based", "settings": "CHO cells transfected with human ERG"}, "[26]": {"assay": "Metabolic stability in human liver microsomes", "type": "ADME, microsome"}, "[27]": {"assay": "Drug degradation in DMSO solution in presence of glutathione measured within 1 hr", "type": "physicochemical", "settings": "DMSO solution with glutathione; read-out: Drug degradation"}, "[28]": {"assay": "Drug degradation in DMSO solution in presence of mercaptoethanol measured within 1 hr", "type": "physicochemical", "settings": "DMSO solution with mercaptoethanol; read-out: Drug degradation"}, "[29]": {"assay": "Solubility of the compound in water", "type": "physicochemical", "settings": "buffer"}, "[30]": {"assay": "Cytotoxicity against human HepG2 cells assessed as decrease in cell viability after 40 hrs by Celltiter Glo assay"}}, "data": [{"smiles": "O=C(O)c1cn(C2CC2)c2cc(N3CCNCC3)c(F)cc2c1=O", "note": "[CIPROFLOXACIN]", "values": [{"measurement": "MIC", "setting": "[1]", "value": 0.25, "unit": "µg/mL"}, {"measurement": "MIC", "setting": "[2]", "value": 1, "unit": "µg/mL"}, {"measurement": "MIC", "setting": "[3]", "value": "< 0.125", "unit": "µg/mL"}, {"measurement": "MIC", "setting": "[4]", "value": "< 0.125", "unit": "µg/mL"}, {"measurement": "MIC", "setting": "[5]", "value": 0.25, "unit": "µg/mL"}, {"measurement": "MIC", "setting": "[6]", "value": "< 0.063", "unit": "µg/mL"}, {"measurement": "MIC", "setting": "[7]", "value": "< 0.125", "unit": "µg/mL"}, {"measurement": "MIC", "setting": "[8]", "value": "< 0.125", "unit": "µg/mL"}, {"measurement": "MIC", "setting": "[9]", "value": 8, "unit": "µg/mL"}, {"measurement": "MIC", "setting": "[10]", "value": 64, "unit": "µg/mL"}, {"measurement": "MIC", "setting": "[11]", "value": 8, "unit": "µg/mL"}, {"measurement": "MIC", "setting": "[12]", "value": 0.25, "unit": "µg/mL"}, {"measurement": "MIC", "setting": "[13]", "value": 1, "unit": "µg/mL"}, {"measurement": "MIC", "setting": "[14]", "value": "1 to 2", "unit": "µg/mL"}]}, {"smiles": "CC(=O)Nc1ccc(/C=c2\\c3ccccc3c3c2n2ccnc2c(=O)n3C)cc1", "values": [{"measurement": "MIC", "setting": "[3]", "value": "< 0.125", "unit": "µg/mL"}, {"measurement": "Ratio", "setting": "[15]", "value": ">32"}, {"measurement": "MIC", "setting": "[4]", "value": "> 64", "unit": "µg/mL"}, {"measurement": "Stability", "setting": "[16]", "value": "Stable"}, {"measurement": "permeability", "setting": "[17]", "value": "Impermeable"}, {"measurement": "MIC", "setting": "[18]", "value": 0.063, "unit": "µg/mL"}, {"measurement": "Ratio", "setting": "[19]", "value": ">32"}, {"measurement": "Stability", "setting": "[20]", "value": "Unstable"}, {"measurement": "MIC", "setting": "[21]", "value": 0.25, "unit": "µg/mL"}, {"measurement": "MIC", "setting": "[7]", "value": "> 64", "unit": "µg/mL"}, {"measurement": "MIC", "setting": "[22]", "value": "> 64", "unit": "µg/mL"}, {"measurement": "MIC", "setting": "[23]", "value": 2, "unit": "µg/mL"}, {"measurement": "MIC", "setting": "[8]", "value": "> 64", "unit": "µg/mL"}, {"measurement": "MIC", "setting": "[24]", "value": "> 64", "unit": "µg/mL"}, {"measurement": "inhibition at 10 µM", "setting": "[25]", "value": "> 50", "unit": "%"}, {"measurement": "Stability", "setting": "[26]", "value": "Unstable"}, {"measurement": "degraded at 1 h", "setting": "[27]", "value": "> 50", "unit": "%"}, {"measurement": "degraded at 1 h", "setting": "[28]", "value": "> 50", "unit": "%"}, {"measurement": "solubility", "setting": "[29]", "value": "Insoluble"}, {"measurement": "CC50 at 40 h", "setting": "[30]", "value": 8.4, "unit": "µM"}]}]}
